Like-named read-outs stand apart in the source and are kept apart here.
Columns and labels:
BM-3(wt) = settings: 2% (v/v) DMSO, 200 μM substrate, 500 nM enzyme; cited from earlier work
BM-3(A328V) = settings: 2% (v/v) DMSO, 200 μM substrate, 500 nM enzyme; cited from earlier work
[1] = target: BM-3(wt), wild-type P450BM-3 (Priestia megaterium, UniProt P14779); test: Steady-state turnover, products quantified by GC-MS, wild-type holoenzyme; format: biochemical, Bacillus megaterium; settings: 50 nM enzyme, 250 μM substrate, 50 mM KPi pH 7.4, 25°C
[2] = target: BM-3(A328V), P450BM-3(A328V) (Priestia megaterium, UniProt P14779, A329V); test: Steady-state turnover, products quantified by GC-MS, A328V holoenzyme; format: biochemical, Bacillus megaterium; settings: 50 nM enzyme, 250 μM substrate; for BM-3(A328V) turnover rate: 50 mM KPi pH 7.4, 25°C, GC-MS
[3] = target: BMP(A328V), heme domain of P450BM-3 A328V mutant (Priestia megaterium, UniProt P14779, A329V); test: Substrate dissociation constants by UV-vis spectral titration, A328V heme domain; format: binding, Bacillus megaterium; settings: for Fold Enhancement of substrate affinity, A328V versus wild type: ratio of BMP(wt) KD to BMP(A328V) KD
P450BM-3(A328V) = P450BM-3(A328V) (Priestia megaterium, UniProt P14779, A329V); test: Regiospecificity of hydroxylation, product distribution by GC/MS, A328V; format: biochemical, Bacillus megaterium; settings: A328V mutant, 500 μM substrate, 50 nM enzyme, 250 μM NADPH, run to completion
[4] = target: BMP(wt), heme domain of P450BM-3 (Priestia megaterium, UniProt P14779); format: binding, Bacillus megaterium
P450BM-3 wild-type = P450BM-3 wild-type (Priestia megaterium, UniProt P14779); test: Regiospecificity of hydroxylation, product distribution by GC/MS, wild type; format: biochemical, Bacillus megaterium; settings: wild-type enzyme, 500 μM substrate, 50 nM enzyme, 250 μM NADPH, run to completion
[5] = read-out: BMP(A328V) Dissociation Constant, 50 mM KPi pH 7.4, room temperature, 1 μM P450, UV-vis titration

BM-3(A328V), P450BM-3(A328V), sequence (P14779 whole entry A329V, the tested form may be a part): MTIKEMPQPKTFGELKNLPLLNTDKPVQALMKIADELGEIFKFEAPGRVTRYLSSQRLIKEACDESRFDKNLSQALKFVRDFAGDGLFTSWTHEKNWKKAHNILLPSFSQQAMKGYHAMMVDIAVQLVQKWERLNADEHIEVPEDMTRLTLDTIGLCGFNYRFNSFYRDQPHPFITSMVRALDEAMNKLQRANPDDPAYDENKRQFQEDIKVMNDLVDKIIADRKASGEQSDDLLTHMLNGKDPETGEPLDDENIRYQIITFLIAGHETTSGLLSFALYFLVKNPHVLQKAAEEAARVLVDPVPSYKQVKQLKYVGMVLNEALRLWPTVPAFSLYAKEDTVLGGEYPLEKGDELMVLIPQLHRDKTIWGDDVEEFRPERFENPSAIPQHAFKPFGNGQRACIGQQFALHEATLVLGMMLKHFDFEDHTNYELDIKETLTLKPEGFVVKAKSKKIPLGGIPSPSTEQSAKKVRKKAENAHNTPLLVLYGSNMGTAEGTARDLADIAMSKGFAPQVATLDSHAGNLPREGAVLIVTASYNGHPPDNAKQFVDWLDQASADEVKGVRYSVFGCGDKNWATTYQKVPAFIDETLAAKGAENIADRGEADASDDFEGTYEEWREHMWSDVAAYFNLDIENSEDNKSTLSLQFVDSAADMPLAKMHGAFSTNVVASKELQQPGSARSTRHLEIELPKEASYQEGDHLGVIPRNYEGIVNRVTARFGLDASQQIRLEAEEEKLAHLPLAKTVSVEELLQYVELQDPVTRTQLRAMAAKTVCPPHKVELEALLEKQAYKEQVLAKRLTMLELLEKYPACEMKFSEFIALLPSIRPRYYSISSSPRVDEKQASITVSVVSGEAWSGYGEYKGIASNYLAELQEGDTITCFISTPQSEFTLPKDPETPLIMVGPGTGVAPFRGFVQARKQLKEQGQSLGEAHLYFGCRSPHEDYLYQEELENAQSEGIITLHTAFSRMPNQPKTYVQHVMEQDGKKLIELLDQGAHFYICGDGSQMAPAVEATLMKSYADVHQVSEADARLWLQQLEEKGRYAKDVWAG
BMP(A328V), heme domain of P450BM-3 A328V mutant, sequence (P14779 2-472 A329V): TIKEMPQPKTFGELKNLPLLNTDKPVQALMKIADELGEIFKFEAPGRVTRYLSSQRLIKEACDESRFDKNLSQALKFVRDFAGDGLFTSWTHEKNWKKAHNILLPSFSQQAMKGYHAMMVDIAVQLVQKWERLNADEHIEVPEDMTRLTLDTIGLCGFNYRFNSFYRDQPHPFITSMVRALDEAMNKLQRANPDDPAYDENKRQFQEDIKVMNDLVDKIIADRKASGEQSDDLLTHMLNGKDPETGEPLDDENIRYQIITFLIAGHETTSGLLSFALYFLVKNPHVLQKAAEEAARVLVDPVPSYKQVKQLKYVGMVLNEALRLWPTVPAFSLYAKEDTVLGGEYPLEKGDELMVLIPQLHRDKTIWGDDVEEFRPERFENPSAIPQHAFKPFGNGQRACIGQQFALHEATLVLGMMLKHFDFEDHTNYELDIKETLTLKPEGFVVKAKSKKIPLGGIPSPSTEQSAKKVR
BM-3(wt), wild-type P450BM-3, sequence (P14779 whole entry): as the sequence (P14779 whole entry A329V, the tested form may be a part) above, with V329A counted along it
P450BM-3(A328V), sequence (P14779 whole entry A329V, the tested form may be a part): as the sequence (P14779 whole entry A329V, the tested form may be a part) above
P450BM-3 wild-type, sequence (P14779 whole entry): as the sequence (P14779 whole entry A329V, the tested form may be a part) above, with V329A counted along it
BMP(wt), heme domain of P450BM-3, sequence (P14779 2-472): as the sequence (P14779 2-472 A329V) above, with V328A counted along it

Row | Structure (SMILES) | BM-3(wt) turnover rate (BM-3(wt)) [μmol/min/μmol] | BM-3(A328V) turnover rate (BM-3(A328V)) [μmol/min/μmol] | BM-3(wt) turnover rate [1] [μmol/min/μmol] | Fold Enhancement of turnover (rate A328V divided by rate wild type) [2] | BM-3(A328V) turnover rate [2] [μmol/min/μmol] | Fold Enhancement of substrate affinity, A328V versus wild type [3] | Kd [3, 5] [nM] | ω-1 hydroxy product, percent of total oxidation products (P450BM-3(A328V)) [%] | Kd [4] [nM] | ω-2 hydroxy product, percent of total oxidation products (P450BM-3 wild-type) [%] | Kd [3] [nM]
1 | CC(=O)CC/C=C(/C)CCC=C(C)C [Nerylacetone] | 155 ± 7 | 338 ± 10 |  |  |  |  |  |  |  |  | 
2 | CCCCCCCCCCCCCCCC(=O)N[C@@H](CCC(N)=O)C(=O)O [PalmGln, N-palmitoyl-L-glutamine] |  |  | 610 ± 25 | 7.4 | 4500 ± 500 | 2.7 | 74 ± 5 |  |  |  | 
3 | CCCCCCCCCCCCCCCC(=O)N[C@@H](CCC(=O)O)C(=O)O [PalmGlu, N-palmitoyl-L-glutamate] |  |  | 485 ± 15 | 8.2 | 3960 ± 280 | 9.0 | 410 ± 60 |  |  |  | 
4 | CCCCCCCCCCCCCCCC(=O)NCC(=O)O [PalmGly, N-palmitoylglycine] |  |  | 1875 ± 30 | 2.9 | 5500 ± 600 | 7.1 | 45 ± 14 |  |  |  | 
5 | CCCCCCCCCCCCCCCC(=O)N[C@@H](CC(C)C)C(=O)O [PalmLeu] |  |  | 1155 ± 20 | 3.4 | 3900 ± 320 |  | < 30 |  |  |  | 
6 | CCCCCCCCCCCCCCCC(=O)N[C@@H](CCSC)C(=O)O [PalmMet, N-palmitoyl-L-methionine] |  |  | 1690 ± 75 | 2.6 | 4400 ± 145 |  | < 30 |  |  |  | 
7 | CCCCCCCCCCCCCCCC(=O)O [Palmitate, palmitic acid] |  |  | 1480 ± 35 | 2.3 | 3355 ± 95 | 8.1 |  | 72 | 1300 ± 170 | 46 | 160 ± 20

— paper PMC3235725 (Biochemistry, 2011)
